The record followed here is US10961236B2, “(S)-2-(1-cyclopropylethyl)-5-(4-methyl-2-((6-(2-oxopyrrolidin-1-yl)pyridin-2-yl)amino) thiazol-5-yl)-7-(methylsulfonyl)isoindolin-1-one as a phosphatidylinositol 3-kinase inhibitor” (AstraZeneca AB, priority 2016, dated 2021).

Common to all, as to format: biochemical
Assay [1] deals with recombinant human PI3Kα (6-His(p110-p85α)) (Homo sapiens (Human), UniProt P42336). As to the kind of experiment: Enzymatic activity assay for recombinant human PI3Kα (ADP-Glo). The settings on record: 1.2 nM PI3Kα, 20 μM ATP, 80 μM DiC8-PIP2, ADP-Glo. As to the method: (§1) Enzymatic Activity Assay for Recombinant Human PI3K α, β, δ and γ.
recombinant human PI3Kα (6-His(p110-p85α)), sequence (P42336 whole entry, the tested form may be a part): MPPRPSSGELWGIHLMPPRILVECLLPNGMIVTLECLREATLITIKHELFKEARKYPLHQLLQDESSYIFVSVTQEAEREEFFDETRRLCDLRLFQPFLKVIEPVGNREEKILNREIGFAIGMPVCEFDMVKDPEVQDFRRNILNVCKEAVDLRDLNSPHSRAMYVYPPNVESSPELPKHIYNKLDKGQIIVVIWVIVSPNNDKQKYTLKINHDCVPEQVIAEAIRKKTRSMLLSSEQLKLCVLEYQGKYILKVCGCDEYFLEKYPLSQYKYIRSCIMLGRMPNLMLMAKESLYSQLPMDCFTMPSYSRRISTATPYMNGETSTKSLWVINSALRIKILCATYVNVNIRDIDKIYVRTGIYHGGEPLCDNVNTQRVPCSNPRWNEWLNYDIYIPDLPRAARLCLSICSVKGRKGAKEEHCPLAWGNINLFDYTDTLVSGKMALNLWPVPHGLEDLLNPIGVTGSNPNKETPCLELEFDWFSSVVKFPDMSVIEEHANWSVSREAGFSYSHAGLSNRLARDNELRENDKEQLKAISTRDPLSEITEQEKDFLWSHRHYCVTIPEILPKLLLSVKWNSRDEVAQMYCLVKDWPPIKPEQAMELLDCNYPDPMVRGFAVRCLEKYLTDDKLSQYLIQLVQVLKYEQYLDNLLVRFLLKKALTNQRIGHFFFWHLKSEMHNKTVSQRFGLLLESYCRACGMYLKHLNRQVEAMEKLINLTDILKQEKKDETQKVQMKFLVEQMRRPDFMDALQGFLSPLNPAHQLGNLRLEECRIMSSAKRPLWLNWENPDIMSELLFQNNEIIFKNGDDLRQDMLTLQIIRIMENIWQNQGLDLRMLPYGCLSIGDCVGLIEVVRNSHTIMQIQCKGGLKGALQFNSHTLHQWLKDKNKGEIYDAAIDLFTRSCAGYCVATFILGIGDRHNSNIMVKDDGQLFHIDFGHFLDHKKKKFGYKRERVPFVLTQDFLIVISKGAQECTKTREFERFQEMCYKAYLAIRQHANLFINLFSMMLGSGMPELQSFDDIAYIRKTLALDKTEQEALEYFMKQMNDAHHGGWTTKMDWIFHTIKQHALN
recombinant human PI3Kα (6-His(p110-p85α)), sequence (P27986 whole entry partner, the tested form may be a part): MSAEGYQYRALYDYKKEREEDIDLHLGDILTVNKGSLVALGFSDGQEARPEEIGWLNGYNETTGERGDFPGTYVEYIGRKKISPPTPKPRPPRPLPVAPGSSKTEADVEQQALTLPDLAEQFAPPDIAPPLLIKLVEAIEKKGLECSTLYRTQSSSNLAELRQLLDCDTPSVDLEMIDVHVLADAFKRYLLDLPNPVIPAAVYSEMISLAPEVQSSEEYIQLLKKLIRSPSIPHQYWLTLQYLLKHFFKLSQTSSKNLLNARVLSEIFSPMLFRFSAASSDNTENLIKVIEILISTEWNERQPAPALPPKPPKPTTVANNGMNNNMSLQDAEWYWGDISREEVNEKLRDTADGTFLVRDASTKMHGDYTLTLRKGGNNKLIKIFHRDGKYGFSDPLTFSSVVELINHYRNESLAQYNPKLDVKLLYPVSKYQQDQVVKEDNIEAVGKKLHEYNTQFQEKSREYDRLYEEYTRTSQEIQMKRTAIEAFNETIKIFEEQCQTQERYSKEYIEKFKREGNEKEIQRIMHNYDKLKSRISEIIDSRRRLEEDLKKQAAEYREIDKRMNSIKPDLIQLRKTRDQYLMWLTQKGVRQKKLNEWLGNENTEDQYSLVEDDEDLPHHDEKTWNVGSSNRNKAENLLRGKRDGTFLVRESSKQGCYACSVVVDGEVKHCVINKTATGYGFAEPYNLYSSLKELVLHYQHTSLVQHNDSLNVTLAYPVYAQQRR
(§2) The activity of recombinant human PI3Kγ ((aa144-1102)-6His) and PI3Kα, β, δ (6-His(p110-p85α)) was determined by measuring the ADP level after phosphorylation of DiC8-PIP2 using a commercially available ADP-Glo™ kit from Promega. The assay was carried out in white low volume 384 well plates in a final volume of 14 μl at R.T. The assay conditions contained the following: 50 mM Tris buffer pH 7.4, 2.1 mM DTT, 3 mM MgCl2, 0.05% CHAPS, 20 μM ATP, 80 μM DiC8-PIP2 and 1.2 nM PI3Kα, β, γ or 0.6 nM PI3Kδ. Potential inhibitors were made up in DMSO and then diluted in the assay to give a final concentration of not exceeding 1% (v/v) DMSO. […] Routinely, inhibitors were pre-incubated with 3 μl of enzyme for 15 min prior to the addition of 2 μl substrate mixture for a further 60 min enzyme reaction. The phosphorylation was stopped with the addition of 3 μl ADP-Glo™ reagent (stop solution) followed by a 40 min incubation. Prior to detection 6 μl of ADP-Glo™ Kinase Detection Reagent was added and the plates were read in a micro plate reader using a Luminescence filter. All additions were followed by a short centrifugation step.
A general note: In ADP-Glo the light output rises with the ADP produced.

The target of assay [2] is recombinant human PI3Kβ (6-His(p110-p85α)) (Homo sapiens (Human), UniProt P42338). Description: Enzymatic activity assay for recombinant human PI3Kβ (ADP-Glo). Particulars: 1.2 nM PI3Kβ, 20 μM ATP, 80 μM DiC8-PIP2, ADP-Glo. The protocol: as §1, §2
recombinant human PI3Kβ (6-His(p110-p85α)), sequence (P42338 whole entry): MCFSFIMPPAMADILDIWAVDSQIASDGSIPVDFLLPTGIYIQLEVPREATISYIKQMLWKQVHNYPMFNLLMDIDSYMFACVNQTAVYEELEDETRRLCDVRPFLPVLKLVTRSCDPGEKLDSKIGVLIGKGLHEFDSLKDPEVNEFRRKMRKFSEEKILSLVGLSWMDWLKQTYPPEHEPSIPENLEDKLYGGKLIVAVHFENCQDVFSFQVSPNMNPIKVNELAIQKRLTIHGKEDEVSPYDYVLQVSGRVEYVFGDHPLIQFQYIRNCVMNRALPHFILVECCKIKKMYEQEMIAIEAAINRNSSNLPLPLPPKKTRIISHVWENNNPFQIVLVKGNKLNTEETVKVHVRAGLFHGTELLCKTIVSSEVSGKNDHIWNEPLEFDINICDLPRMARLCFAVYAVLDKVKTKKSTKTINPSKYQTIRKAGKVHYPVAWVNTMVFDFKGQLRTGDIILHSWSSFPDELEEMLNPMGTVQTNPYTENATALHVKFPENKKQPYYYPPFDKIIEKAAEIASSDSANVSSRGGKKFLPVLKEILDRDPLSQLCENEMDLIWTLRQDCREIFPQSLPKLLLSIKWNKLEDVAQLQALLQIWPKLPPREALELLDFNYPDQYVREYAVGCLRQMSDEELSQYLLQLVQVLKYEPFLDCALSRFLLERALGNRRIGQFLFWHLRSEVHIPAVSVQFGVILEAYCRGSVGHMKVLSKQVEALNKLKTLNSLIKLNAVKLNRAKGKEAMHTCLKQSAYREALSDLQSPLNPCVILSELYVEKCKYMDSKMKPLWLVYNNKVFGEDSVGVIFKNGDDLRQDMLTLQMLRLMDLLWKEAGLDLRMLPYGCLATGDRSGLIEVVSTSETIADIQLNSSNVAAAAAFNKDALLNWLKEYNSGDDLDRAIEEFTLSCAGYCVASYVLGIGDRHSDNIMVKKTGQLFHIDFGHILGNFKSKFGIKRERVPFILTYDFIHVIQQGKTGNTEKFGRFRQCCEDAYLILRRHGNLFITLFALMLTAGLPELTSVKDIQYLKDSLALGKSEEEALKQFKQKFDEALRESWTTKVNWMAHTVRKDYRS
recombinant human PI3Kβ (6-His(p110-p85α)), sequence (P27986 whole entry partner): as the sequence (P27986 whole entry partner, the tested form may be a part) above
For assay [3], the target named is recombinant human PI3Kδ (6-His(p110-p85α)) (Homo sapiens (Human), UniProt O00329). As to the kind of experiment: Enzymatic activity assay for recombinant human PI3Kδ (ADP-Glo). Particulars: 0.6 nM PI3Kδ, 20 μM ATP, 80 μM DiC8-PIP2, ADP-Glo. As to the method: as §1
recombinant human PI3Kδ (6-His(p110-p85α)), sequence (O00329 whole entry): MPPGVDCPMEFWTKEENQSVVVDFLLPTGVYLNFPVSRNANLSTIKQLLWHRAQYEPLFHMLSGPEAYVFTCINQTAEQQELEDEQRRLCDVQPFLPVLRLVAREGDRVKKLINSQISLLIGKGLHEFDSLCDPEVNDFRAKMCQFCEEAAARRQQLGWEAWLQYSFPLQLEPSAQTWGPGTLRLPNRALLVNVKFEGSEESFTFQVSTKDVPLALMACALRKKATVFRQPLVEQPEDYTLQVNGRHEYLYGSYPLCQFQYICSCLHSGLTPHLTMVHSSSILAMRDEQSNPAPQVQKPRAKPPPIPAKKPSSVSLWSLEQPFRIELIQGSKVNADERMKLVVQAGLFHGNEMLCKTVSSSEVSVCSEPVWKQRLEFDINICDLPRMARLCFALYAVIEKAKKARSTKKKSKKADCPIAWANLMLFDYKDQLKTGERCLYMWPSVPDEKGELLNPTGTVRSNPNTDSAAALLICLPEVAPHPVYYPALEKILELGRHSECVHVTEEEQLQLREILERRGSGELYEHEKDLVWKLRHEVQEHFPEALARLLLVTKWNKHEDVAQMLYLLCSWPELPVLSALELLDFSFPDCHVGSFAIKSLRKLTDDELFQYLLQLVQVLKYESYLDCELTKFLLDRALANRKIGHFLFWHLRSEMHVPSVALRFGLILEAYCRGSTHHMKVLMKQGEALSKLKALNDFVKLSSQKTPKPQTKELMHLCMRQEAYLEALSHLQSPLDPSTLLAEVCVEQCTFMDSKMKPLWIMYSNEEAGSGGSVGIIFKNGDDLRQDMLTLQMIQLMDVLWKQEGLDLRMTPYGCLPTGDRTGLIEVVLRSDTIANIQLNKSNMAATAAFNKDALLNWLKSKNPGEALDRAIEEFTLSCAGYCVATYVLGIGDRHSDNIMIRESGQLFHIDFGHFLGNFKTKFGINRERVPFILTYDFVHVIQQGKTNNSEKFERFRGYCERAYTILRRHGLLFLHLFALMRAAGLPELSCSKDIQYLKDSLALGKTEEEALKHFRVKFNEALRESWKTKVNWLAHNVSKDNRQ
recombinant human PI3Kδ (6-His(p110-p85α)), sequence (P27986 whole entry partner): as the sequence (P27986 whole entry partner, the tested form may be a part) above
as §2, with “PI3Kδ.” for “PI3Kδ. Potential inhibitors were made up in DMSO and then diluted in the assay to give a final concentration of not exceeding 1% (v/v) DMSO.”

For assay [4], the target named is recombinant human PI3Kγ ((aa144-1102)-6His) (Homo sapiens (Human), UniProt P48736). As to the kind of experiment: Enzymatic activity assay for recombinant human PI3Kγ (ADP-Glo). The settings on record: 1.2 nM PI3Kγ, 20 μM ATP, 80 μM DiC8-PIP2, ADP-Glo. The protocol:
as §1
as §2, with “PI3Kδ.” for “PI3Kδ. Potential inhibitors were made up in DMSO and then diluted in the assay to give a final concentration of not exceeding 1% (v/v) DMSO.”

recombinant human PI3Kγ ((aa144-1102)-6His), sequence (P48736 144-1102): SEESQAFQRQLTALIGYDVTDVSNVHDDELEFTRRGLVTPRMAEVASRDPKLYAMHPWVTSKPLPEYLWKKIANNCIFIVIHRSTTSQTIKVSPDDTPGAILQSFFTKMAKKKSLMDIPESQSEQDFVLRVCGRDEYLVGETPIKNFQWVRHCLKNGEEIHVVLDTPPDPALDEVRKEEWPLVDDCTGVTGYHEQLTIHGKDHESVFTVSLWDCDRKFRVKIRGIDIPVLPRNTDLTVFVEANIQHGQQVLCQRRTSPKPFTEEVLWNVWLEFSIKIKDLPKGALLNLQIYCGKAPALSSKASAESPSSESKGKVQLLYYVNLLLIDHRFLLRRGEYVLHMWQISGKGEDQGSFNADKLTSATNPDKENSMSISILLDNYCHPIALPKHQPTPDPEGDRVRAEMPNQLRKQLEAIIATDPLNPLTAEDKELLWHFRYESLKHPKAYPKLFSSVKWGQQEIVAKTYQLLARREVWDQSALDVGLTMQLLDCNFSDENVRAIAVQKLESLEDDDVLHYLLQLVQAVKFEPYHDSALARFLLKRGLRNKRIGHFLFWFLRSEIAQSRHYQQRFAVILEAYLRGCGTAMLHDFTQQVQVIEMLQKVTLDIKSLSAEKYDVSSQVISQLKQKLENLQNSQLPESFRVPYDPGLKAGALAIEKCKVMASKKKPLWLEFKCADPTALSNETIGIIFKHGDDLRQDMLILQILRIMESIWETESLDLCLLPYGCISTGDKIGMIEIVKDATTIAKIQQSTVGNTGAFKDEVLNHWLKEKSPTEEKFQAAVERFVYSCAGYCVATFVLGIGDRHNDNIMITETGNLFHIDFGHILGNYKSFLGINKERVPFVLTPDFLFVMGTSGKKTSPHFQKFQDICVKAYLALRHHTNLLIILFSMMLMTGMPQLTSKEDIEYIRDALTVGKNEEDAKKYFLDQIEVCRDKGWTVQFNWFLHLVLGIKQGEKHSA

Consider `CNS(=O)(=O)c1cc(-c2sc(Nc3cccc(N(C)C(C)=O)n3)nc2C)cc2c1C(=O)N([C@@H](C)C1CC1)C2` [Example 13, N-{6-[(5-{2-[(1S)-1-Cyclopropylethyl]-7-(methylsulfamoyl)-1-oxo-2,3-dihydro-1H-isoindol-5-yl}-4-methyl-1,3-thiazol-2-yl)amino]pyridin-2-yl}-N-methylacetamide], for which the IC50 in assay [1] was 68 nM; in assay [2] it was 1570 nM; in assay [3], 1.1 nM; in assay [4], 0.8 nM.
For the compound `CNS(=O)(=O)c1cc(-c2sc(Nc3cccc(N(C)C(=O)COC)n3)nc2C)cc2c1C(=O)N([C@@H](C)C1CC1)C2` [Example 14, N-{6-[(5-{2-[(1S)-1-Cyclopropylethyl]-7-(methylsulfamoyl)-1-oxo-2,3-dihydro-1H-isoindol-5-yl}-4-methyl-1,3-thiazol-2-yl)amino]pyridin-2-yl}-2-methoxy-N-methylacetamide], the IC50 in assay [1] was found to be 80 nM; in assay [2] it was 724 nM; in assay [3] it was 0.4 nM; in assay [4] it was 0.9 nM.
Take `CNS(=O)(=O)c1cc(-c2sc(Nc3cccc(N(C)C(=O)[C@@H](C)OC)n3)nc2C)cc2c1C(=O)N([C@@H](C)C1CC1)C2` [Example 15, (2R)—N-{6-[(5-{2-[(1S)-1-Cyclopropylethyl]-7-(methylsulfamoyl)-1-oxo-2,3-dihydro-1H-isoindol-5-yl}-4-methyl-1,3-thiazol-2-yl)amino]pyridin-2-yl}-2-methoxy-N-methylpropanamide]: the IC50 in assay [1] was determined as 89 nM; in assay [2] it was 1160 nM; in assay [3], 1.2 nM; in assay [4], 1 nM.
Taken in the same sequence, the figures for `CNS(=O)(=O)c1cc(-c2sc(Nc3cccc(N(C)C(=O)[C@H](C)OC)n3)nc2C)cc2c1C(=O)N([C@@H](C)C1CC1)C2` [Example 16, (2S)—N-{6-[(5-{2-[(1S)-1-Cyclopropylethyl]-7-(methylsulfamoyl)-1-oxo-2,3-dihydro-1H-isoindol-5-yl}-4-methyl-1,3-thiazol-2-yl)amino]pyridin-2-yl}-2-methoxy-N-methylpropanamide] were 55 nM, 539 nM, 0.8 nM and 1.2 nM.
For `CCOCC(=O)N(C)c1cccc(Nc2nc(C)c(-c3cc4c(c(S(=O)(=O)NC)c3)C(=O)N([C@@H](C)C3CC3)C4)s2)n1` [Example 17, N-{6-[(5-{2-[(1S)-1-Cyclopropylethyl]-7-(methylsulfamoyl)-1-oxo-2,3-dihydro-1H-isoindol-5-yl}-4-methyl-1,3-thiazol-2-yl)amino]pyridin-2-yl}-2-ethoxy-N-methylacetamide] the same measures were 48 nM, 677 nM, 0.3 nM and 1.1 nM.
Taken in the same sequence, the figures for `CCN(C(=O)COC)c1cccc(Nc2nc(C)c(-c3cc4c(c(S(=O)(=O)NC)c3)C(=O)N([C@@H](C)C3CC3)C4)s2)n1` [Example 18, N-{6-[(5-{2-[(1S)-1-Cyclopropylethyl]-7-(methylsulfamoyl)-1-oxo-2,3-dihydro-1H-isoindol-5-yl}-4-methyl-1,3-thiazol-2-yl)amino]pyridin-2-yl}-N-ethyl-2-methoxyacetamide] were 25 nM, 231 nM, 0.3 nM and 0.8 nM.
Take `CNS(=O)(=O)c1cc(-c2sc(Nc3cccc(N4CCOCC4=O)n3)nc2C)cc2c1C(=O)N([C@@H](C)C1CC1)C2` [Example 20, 2-[(1S)-1-Cyclopropylethyl]-N-methyl-6-(4-methyl-2-{[6-(3-oxomorpholin-4-yl)pyridin-2-yl]amino}-1,3-thiazol-5-yl)-3-oxo-2,3-dihydro-1H-isoindole-4-sulfonamide]: the IC50 in assay [1] is 37 nM; in assay [2], 543 nM; in assay [3], 0.7 nM; in assay [4] it was 0.9 nM.
For `CNS(=O)(=O)c1cc(-c2sc(Nc3cccc(N4CCCOC4=O)n3)nc2C)cc2c1C(=O)N([C@@H](C)C1CC1)C2` [Example 21, 2-[(1S)-1-Cyclopropylethyl]-N-methyl-6-(4-methyl-2-{[6-(2-oxo-1,3-oxazinan-3-yl)pyridin-2-yl]amino}-1,3-thiazol-5-yl)-3-oxo-2,3-dihydro-1H-isoindole-4-sulfonamide] the same measures were 19 nM, 103 nM, 0.6 nM and 1.1 nM.
For `CNS(=O)(=O)c1cc(-c2sc(Nc3cccc(N4CCN(C)CC4=O)n3)nc2C)cc2c1C(=O)N([C@@H](C)C1CC1)C2` [Example 22, 2-[(1S)-1-Cyclopropylethyl]-N-methyl-6-(4-methyl-2-{[6-(4-methyl-2-oxopiperazin-1-yl)pyridin-2-yl]amino}-1,3-thiazol-5-yl)-3-oxo-2,3-dihydro-1H-isoindole-4-sulfonamide] the same measures were 38 nM, 328 nM, 1.3 nM and 1 nM.
For `CNS(=O)(=O)c1cc(-c2sc(Nc3cccc(N4CC(=O)N5CCC[C@H]5C4=O)n3)nc2C)cc2c1C(=O)N([C@@H](C)C1CC1)C2` [Example 23, 2-[(1S)-1-Cyclopropylethyl]-6-[2-({6-[(8aS)-1,4-dioxohexahydropyrrolo[1,2-a]pyrazin-2(1H)-yl]pyridin-2-yl}amino)-4-methyl-1,3-thiazol-5-yl]-N-methyl-3-oxo-2,3-dihydro-1H-isoindole-4-sulfonamide] the same measures were 368 nM, 4880 nM, 19.4 nM and 1.3 nM.
Regarding `CNS(=O)(=O)c1cc(-c2sc(Nc3cccc(N4CCCS4(=O)=O)n3)nc2C)cc2c1C(=O)N([C@@H](C)C1CC1)C2` [Example 24, 2-[(1S)-1-Cyclopropylethyl]-6-(2-{[6-(1,1-dioxido-1,2-thiazolidin-2-yl)pyridin-2-yl]amino}-4-methyl-1,3-thiazol-5-yl)-N-methyl-3-oxo-2,3-dihydro-1H-isoindole-4-sulfonamide], the half-inhibitory concentration (IC50) was found to be 42 nM in assay [1], 897 nM in assay [2], 0.4 nM in assay [3] and 0.9 nM in assay [4].
As for `CNS(=O)(=O)c1cc(-c2sc(Nc3cccc(N4CCCC4=O)n3)nc2C)cc2c1C(=O)N([C@@H](C)C(F)(F)F)C2` [Example 25, N-Methyl-6-(4-methyl-2-{[6-(2-oxopyrrolidin-1-yl)pyridin-2-yl]amino}-1,3-thiazol-5-yl)-3-oxo-2-[(2S)-1,1,1-trifluoropropan-2-yl]-2,3-dihydro-1H-isoindole-4-sulfonamide], the IC50 is 70 nM in assay [1], 505 nM in assay [2], 0.7 nM in assay [3] and 1.1 nM in assay [4].
Turning to `CCNS(=O)(=O)c1cc(-c2sc(Nc3cccc(N(C)C(=O)COC)n3)nc2C)cc2c1C(=O)N([C@@H](C)C1CC1)C2` [Example 26, N-{6-[(5-{2-[(1S)-1-Cyclopropylethyl]-7-(ethylsulfamoyl)-1-oxo-2,3-dihydro-1H-isoindol-5-yl}-4-methyl-1,3-thiazol-2-yl)amino]pyridin-2-yl}-2-methoxy-N-methylacetamide], the IC50 turned out to be 110 nM in assay [1], 562 nM in assay [2], 0.5 nM in assay [3] and 1.1 nM in assay [4].
For the compound `CCNS(=O)(=O)c1cc(-c2sc(Nc3cccc(N4CCOCC4=O)n3)nc2C)cc2c1C(=O)N([C@@H](C)C(F)(F)F)C2` [Example 27, N-Ethyl-6-(4-methyl-2-{[6-(3-oxomorpholin-4-yl)pyridin-2-yl]amino}-1,3-thiazol-5-yl)-3-oxo-2-[(2S)-1,1,1-trifluoropropan-2-yl]-2,3-dihydro-1H-isoindole-4-sulfonamide], the IC50 in assay [1] is 65 nM; in assay [2], 178 nM; in assay [3], 0.7 nM; in assay [4] it was 0.9 nM.

The IC50 is the midpoint of a concentration-inhibition curve.
